ChEMBL document CHEMBL1140066, “3,4-Dihydro-2H-1,4-benzoxazine derivatives combining thrombin inhibitory and glycoprotein IIb/IIIa receptor antagonistic activity as a novel class of antithrombotic compounds with dual function” (J Med Chem, 2008)
Active and inactive are the calls of the source. No cut-off for these calls is given here.

Columns and labels:
[1] = Selectivity for thrombin over factor 10a
[2] = Selectivity for thrombin over trypsin
[3] = molecular target: Integrin alpha-IIb/beta-3 (Homo sapiens, UniProt P05106+P08514); experiment: Inhibition of fibrinogen binding to human platelet GPIIb/IIIa receptor
Chain of Integrin alpha-IIb/beta-3 (P05106 27-788 limits assumed): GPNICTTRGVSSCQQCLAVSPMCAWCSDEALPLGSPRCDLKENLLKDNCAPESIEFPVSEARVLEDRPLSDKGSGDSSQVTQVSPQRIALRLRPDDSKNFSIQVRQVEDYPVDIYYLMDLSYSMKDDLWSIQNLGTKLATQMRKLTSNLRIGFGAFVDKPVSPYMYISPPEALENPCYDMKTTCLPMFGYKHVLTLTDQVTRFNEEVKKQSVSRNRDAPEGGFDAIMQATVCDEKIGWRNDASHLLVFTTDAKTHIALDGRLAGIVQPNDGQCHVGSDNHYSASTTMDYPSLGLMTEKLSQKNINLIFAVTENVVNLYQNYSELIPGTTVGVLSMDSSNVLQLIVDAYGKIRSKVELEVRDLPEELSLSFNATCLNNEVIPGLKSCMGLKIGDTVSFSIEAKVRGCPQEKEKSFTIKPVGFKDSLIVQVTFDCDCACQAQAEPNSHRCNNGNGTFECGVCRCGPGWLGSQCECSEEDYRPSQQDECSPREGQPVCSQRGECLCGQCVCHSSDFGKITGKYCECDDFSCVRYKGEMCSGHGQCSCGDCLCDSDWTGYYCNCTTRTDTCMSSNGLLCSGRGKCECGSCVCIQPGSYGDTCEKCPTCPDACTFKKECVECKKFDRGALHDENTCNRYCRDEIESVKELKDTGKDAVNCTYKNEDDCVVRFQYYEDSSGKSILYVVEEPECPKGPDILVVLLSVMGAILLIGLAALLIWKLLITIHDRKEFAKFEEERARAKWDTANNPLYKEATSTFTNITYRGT
Chain of Integrin alpha-IIb/beta-3 (P08514 32-887 limits assumed): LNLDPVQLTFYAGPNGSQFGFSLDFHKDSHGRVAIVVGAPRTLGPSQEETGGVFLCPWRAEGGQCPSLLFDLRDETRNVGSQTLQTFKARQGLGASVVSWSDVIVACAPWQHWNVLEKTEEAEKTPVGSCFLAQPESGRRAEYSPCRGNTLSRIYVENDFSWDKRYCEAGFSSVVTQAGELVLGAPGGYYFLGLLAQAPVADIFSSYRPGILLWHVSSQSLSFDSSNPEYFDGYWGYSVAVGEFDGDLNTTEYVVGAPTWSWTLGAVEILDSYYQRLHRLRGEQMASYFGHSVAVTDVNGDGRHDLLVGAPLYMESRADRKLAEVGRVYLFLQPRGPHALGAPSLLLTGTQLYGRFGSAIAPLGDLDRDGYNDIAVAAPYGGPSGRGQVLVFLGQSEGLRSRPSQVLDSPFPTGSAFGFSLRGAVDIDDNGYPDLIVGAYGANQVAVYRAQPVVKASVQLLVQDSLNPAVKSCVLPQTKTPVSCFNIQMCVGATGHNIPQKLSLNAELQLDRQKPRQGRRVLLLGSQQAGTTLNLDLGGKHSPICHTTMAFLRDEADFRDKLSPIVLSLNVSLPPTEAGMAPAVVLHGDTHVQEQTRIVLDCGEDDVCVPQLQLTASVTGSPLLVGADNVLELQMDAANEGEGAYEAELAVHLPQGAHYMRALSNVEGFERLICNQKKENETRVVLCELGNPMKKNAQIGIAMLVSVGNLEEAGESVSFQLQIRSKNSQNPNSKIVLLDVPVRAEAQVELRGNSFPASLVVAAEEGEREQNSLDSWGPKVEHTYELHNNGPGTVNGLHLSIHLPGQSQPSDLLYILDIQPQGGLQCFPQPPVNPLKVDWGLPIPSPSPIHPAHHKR
Chain of Integrin alpha-IIb/beta-3 (P08514 891-1039 limits assumed): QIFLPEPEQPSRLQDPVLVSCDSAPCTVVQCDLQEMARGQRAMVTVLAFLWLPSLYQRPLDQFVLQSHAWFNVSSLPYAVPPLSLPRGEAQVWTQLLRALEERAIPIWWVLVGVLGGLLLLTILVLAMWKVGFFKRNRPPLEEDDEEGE

[4] = molecular target: Prothrombin (Homo sapiens, UniProt P00734)
[5] = molecular target: Coagulation factor X (Homo sapiens, UniProt P00742); experiment: Inhibition of factor 10a
Chain of Coagulation factor X (P00742 41-179 limits assumed): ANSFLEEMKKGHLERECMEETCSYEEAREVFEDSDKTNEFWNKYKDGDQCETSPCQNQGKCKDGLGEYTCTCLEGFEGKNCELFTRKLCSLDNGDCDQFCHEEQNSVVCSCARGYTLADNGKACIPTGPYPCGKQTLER
Chain of Coagulation factor X (P00742 235-488 limits assumed): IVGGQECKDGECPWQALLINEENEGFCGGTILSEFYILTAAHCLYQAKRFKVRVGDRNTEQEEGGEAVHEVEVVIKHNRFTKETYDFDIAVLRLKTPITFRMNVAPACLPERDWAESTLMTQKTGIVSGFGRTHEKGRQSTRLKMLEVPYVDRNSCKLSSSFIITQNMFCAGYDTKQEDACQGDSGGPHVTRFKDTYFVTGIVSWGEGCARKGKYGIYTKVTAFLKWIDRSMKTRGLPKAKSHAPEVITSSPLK

[6] = tested on: Platelet; experiment: Inhibition of ADP-induced platelet aggregation in human platelet rich plasma at 50 uM; assay type: functional
[7] = tested on: Platelet; experiment: Inhibition of ADP-induced platelet aggregation in human platelet rich plasma; assay type: functional, cell-free

| SMILES | Selectivity ratio [1] | Selectivity ratio [2] | IC50 [3] | Ki [4] | Ki [5] | inhibition at 50 µM [6] | IC50 [7] | Activity [6] |
| --- | --- | --- | --- | --- | --- | --- | --- | --- |
| CCOC(=O)C(C(=O)Nc1ccc2c(c1)OC(OCc1ccc(C(=N)N)cc1)C(=O)N2C)c1ccccc1 (stereo unspecified) | 5.1 | 1.5 | 2.44 µM | 9.89 µM | 50.3 µM | 23% | – | – |
| CCOC(=O)CN(Cc1ccccc1)c1ccc2c(c1)N(C)CC(C)(COc1ccc(C(=N)N)cc1)O2 (stereo unspecified) | – | – | 0.73 µM | – | 11.9 µM | 13% | – | – |
| CCOC(=O)CN(C(=O)c1ccccc1)c1ccc2c(c1)OC(C)(COc1ccc(C(=N)N)cc1)CN2C (stereo unspecified) | 47 | 12 | 1.78 µM | 0.156 µM | 9.59 µM | 21% | – | – |
| CN1CC(C)(COc2ccc(C(=N)N)cc2)Oc2ccc(N(Cc3ccccc3)C(=O)C(=O)O)cc21 (stereo unspecified) | – | – | > 100 µM | – | 31.7 µM | – | – | – |
| CCOC(=O)C(=O)N(Cc1ccccc1)c1ccc2c(c1)N(C)CC(C)(COc1ccc(C(=N)N)cc1)O2 (stereo unspecified) | – | – | 1.2 µM | – | 16 µM | 24% | – | – |
| CN1CC(C)(COc2ccc(C(=N)N)cc2)Oc2cc(NC(=O)CCC(=O)O)ccc21 (stereo unspecified) | 6.6 | 0.3 | 1.69 µM | 5.16 µM | 33.8 µM | – | 36.7 µM | – |
| CCOC(=O)CN(C(=O)c1ccc2c(c1)OC(OCc1ccc(C(=N)N)cc1)C(=O)N2C)c1ccccc1 (stereo unspecified) | 11 | 4.6 | 28.4 µM | 3.98 µM | 43.1 µM | 10% | – | – |
| CN1CC(C)(COc2ccc(C(=N)N)cc2)Oc2cc(N(Cc3ccccc3)C(=O)C(=O)O)ccc21 (stereo unspecified) | – | – | > 100 µM | – | 16.6 µM | 26% | – | – |
| CCOC(=O)CN(Cc1ccccc1)c1ccc2c(c1)OC(C)(COc1ccc(C(=N)N)cc1)CN2C (stereo unspecified) | 7 | 4.5 | 1.45 µM | 0.38 µM | 2.67 µM | 19% | – | – |
| CCOC(=O)CCC(=O)Nc1ccc2c(c1)OC(C)(COc1ccc(C(=N)N)cc1)CN2C (stereo unspecified) | 4.4 | 0.4 | 14 µM | 16.9 µM | 74.7 µM | 15% | – | – |
| CN1C(=O)C(OCc2ccc(C(=N)N)cc2)Oc2cc(C(=O)Nc3ccccc3)ccc21 (stereo unspecified) | 1.3 | 0.7 | 12.1 µM | 24.2 µM | 31.6 µM | 19% | – | – |
| COC(=O)C(Cc1ccccc1)C(=O)Nc1ccc2c(c1)OC(C)(COc1ccc(C(=N)N)cc1)CN2C (stereo unspecified) | 12 | 1.7 | 9.11 µM | 2.86 µM | 35.4 µM | 21% | – | – |
| CCOC(=O)CCC(=O)N(Cc1ccccn1)c1ccc2c(c1)OC(C)(COc1ccc(C(=N)N)cc1)CN2C (stereo unspecified) | 472 | 56 | 11.3 µM | 0.025 µM | 11.8 µM | 15% | – | – |
| CCOC(=O)CCC(=O)N(Cc1ccccc1)c1ccc2c(c1)N(C)CC(C)(COc1ccc(C(=N)N)cc1)O2 (stereo unspecified) | – | – | > 100 µM | – | 27.7 µM | – | – | inactive |
| CN1CC(C)(COc2ccc(C(=N)N)cc2)Oc2cc(N(Cc3ccccc3)C(=O)CCC(=O)O)ccc21 (stereo unspecified) | – | – | > 100 µM | – | 29.7 µM | 14% | – | – |
| CN1CC(C)(COc2ccc(C(=N)N)cc2)Oc2cc(NC(=O)c3ccccc3)ccc21 (stereo unspecified) | 2.4 | 0.3 | 2.85 µM | 5 µM | 12.1 µM | 21% | – | – |
| CN1C(=O)C(OCc2ccc(C(=N)N)cc2)Oc2cc(C(=O)N(CC(=O)O)c3ccccc3)ccc21 (stereo unspecified) | 28 | 9.4 | > 100 µM | 1.76 µM | 49.6 µM | 24% | – | – |
| CCOC(=O)C(=O)N(Cc1ccccc1)c1ccc2c(c1)OC(C)(COc1ccc(C(=N)N)cc1)CN2C (stereo unspecified) | – | – | 2 µM | – | 112 µM | 21% | – | – |
| CCOC(=O)CCC(=O)N(Cc1ccccc1)c1ccc2c(c1)OC(C)(COc1ccc(C(=N)N)cc1)CN2C (stereo unspecified) | 300 | 19 | 29.3 µM | 0.06 µM | 18 µM | – | – | inactive |
| CN1C(=O)C(OCc2ccc(C(=N)N)cc2)Oc2cc(C(=O)N[C@@H](CC(=O)O)c3ccccc3)ccc21 (stereo partly specified) | – | – | 1.64 µM | 14.9 µM | > 200 µM | – | – | – |
| CN1CC(C)(COc2ccc(C(=N)N)cc2)Oc2cc(NC(=O)C(Cc3ccccc3)C(=O)O)ccc21 (stereo unspecified) | – | – | – | 5.5 µM | – | – | 24.9 µM | – |
| CCOC(=O)C(Cc1ccccc1)C(=O)Nc1ccc2c(c1)N(C)CC(C)(COc1ccc(C(=N)N)cc1)O2 (stereo unspecified) | 6 | 0.6 | 36.5 µM | 4.93 µM | 29.5 µM | 8% | – | – |
| CCOC(=O)C[C@H](NC(=O)c1ccc2c(c1)OC(OCc1ccc(C(=N)N)cc1)C(=O)N2C)c1ccccc1 (stereo partly specified) | – | – | 24.6 µM | – | 54.6 µM | – | – | – |
| CN1C(=O)C(OCc2ccc(C(=N)N)cc2)Oc2cc(C(=O)NCCC(=O)O)ccc21 (stereo unspecified) | 1 | 0.2 | 15.2 µM | 118 µM | 112 µM | 23% | – | – |
